ChEMBL document CHEMBL1201862, “PubChem BioAssay data set” (2004)
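Cultured in 96-well plates, cells were exposed to test compound for 48 hours across five concentrations. GI50 is the concentration that inhibits growth by half.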 Active and inactive are the calls of the source. Rule as the data show it: active = GI50 up to about 1.1 µM and inactive = higher.

How the values were obtained:
Assay in all cases: DTP human tumour cell line panel, 48 h
HCT-116 = test system: HCT-116
KM-20L2 = test system: KM-20L2
KM12 = test system: KM12
M19-MEL = test system: M19-MEL
Malme-3M = test system: Malme-3M
NCI-H23 = test system: NCI-H23
NCI-H460 = test system: NCI-H460
OVCAR-3 = test system: OVCAR-3
OVCAR-8 = test system: OVCAR-8
RPMI-8226 = test system: RPMI-8226
SK-MEL-28 = test system: SK-MEL-28
SK-MEL-2 = test system: SK-MEL-2
SN12C = test system: SN12C
SNB-75 = test system: SNB-75
UACC-62 = test system: UACC-62
XF498 = test system: XF498
CCRF-CEM = test system: CCRF-CEM
NCI-H522 = test system: NCI-H522
SF-539 = test system: SF-539
SNB-78 = test system: SNB-78

Measured: GI50

CCOC(=O)C12CCC(=O)C=C1[C@@H](C)C(=O)CC2 (some centres undefined)
inactive: HCT-116 > 100 µM | KM-20L2 > 100 µM | KM12 > 100 µM | M19-MEL > 100 µM | Malme-3M > 100 µM | NCI-H23 > 100 µM | NCI-H460 > 100 µM | OVCAR-3 > 100 µM | OVCAR-8 > 100 µM | RPMI-8226 > 100 µM | SK-MEL-28 > 100 µM | SK-MEL-2 > 100 µM | SN12C > 100 µM | SNB-75 > 100 µM | UACC-62 > 100 µM | XF498 > 100 µM

NCc1ccccc1C1CSCSC1
inactive: CCRF-CEM > 100 µM | HCT-116 > 100 µM | KM12 > 100 µM | M19-MEL > 100 µM | Malme-3M > 100 µM | NCI-H23 > 100 µM | NCI-H460 > 100 µM | NCI-H522 > 100 µM | OVCAR-3 > 100 µM | OVCAR-8 > 100 µM | SF-539 > 100 µM | SK-MEL-28 > 100 µM | SK-MEL-2 > 100 µM | SN12C > 100 µM | SNB-75 > 100 µM | SNB-78 > 100 µM | UACC-62 > 100 µM | XF498 > 100 µM
